Laboratory results reported in patent US9062043B2, “Fused tricyclic compounds as serine-threonine protein kinase and PARP modulators” (SENHWA BIOSCIENCES, INC., priority 2006, dated 2015).

tested on: H1299; experiment: Cell proliferation assay, Alamar Blue, H1299; format: cell-based; conditions: Homo sapiens, NCI-H1299; Table 18
Method: (§1) c. Plate 4,000-5,000 cells per well in 100 μl of medium and seed into a 96-well plate according to the following plate layout. Add cell culture medium only to wells B10 to B12. Wells B1 to B9 have cells but no compound added.
(§2) d. Add 100 μl of 2× drug dilution to each well in a concentration shown in the plate layout above. At the same time, add 100 μl of media into the control wells (wells B10 to B12). Total volume is 200 μl/well.
(§3) e. Incubate four (4) days at 37° C., 5% CO2 in a humidified incubator.
(§4) f. Add 20 μl Alamar Blue reagent to each well.
(§5) g. Incubate for four (4) hours at 37° C., 5% CO2 in a humidified incubator.
(§6) h. Record fluorescence at an excitation wavelength of 544 nm and emission wavelength of 590 nm using a microplate reader.
(§7) In the assays, cells are cultured with a test compound for approximately four days, the dye then is added to the cells and fluorescence of […] dye is detected after approximately four hours. Different types of cells can be utilized in the assays (e.g., HCT-116 human colorectal carcinoma cells, PC-3 human prostatic cancer cells and MiaPaca human pancreatic carcinoma cells). Anti-proliferative effects of representative compounds are provided hereafter.

Row | IC50 [µM] | SMILES
1 | 21 | O=C(O)c1ccc2c(c1)nc(NCCc1ccccc1)c1ccncc12 [drawing 1007]

tested on: Hs578T; experiment: Cell proliferation assay, Alamar Blue, Hs578T; format: cell-based; conditions: Homo sapiens, Hs-578T; Table 18

Row | SMILES | IC50 [µM]
2 | O=C(O)c1ccc2c(c1)nc(NCCc1cccc(Cl)c1)c1ccncc12 [drawing 1021] | 25
3 | O=C(O)c1ccc2c(c1)nc(NCCc1ccccc1)c1ccncc12 [drawing 1007] | 16.5
4 | O=C(O)c1ccc2c(c1)nc(NCCc1cccc(F)c1)c1ccncc12 [drawing 1022] | 24.6
5 | O=C(O)c1ccc2c(c1)nc(NCCCc1ccccc1)c1ccncc12 [drawing 1023] | 29.9

tested on: MiaPaca human pancreatic carcinoma cells; experiment: Cell proliferation assay, Alamar Blue, MiaPaca; format: cell-based; conditions: MIA PaCa-2, Table 16
Method: (§8) A representative cell-proliferation assay protocol using Alamar Blue dye (stored at 4° C., use 20 ul per well) is described hereafter.
as §1, §2, §3, §4, §5, §6, §7

Row | SMILES | IC50 [µM]
6 | Fc1cc(Cl)cc(Nc2nc3cc(-c4nnn[nH]4)ccc3c3sccc23)c1 | > 10
7 | O=C(O)c1ccc2c(c1)nc(Nc1cccc(S(=O)(=O)NC3CC3)c1)c1ccsc12 | > 10

The next lines start with the values.

Row | IC50 [µM] | SMILES
8 | > 10 | Cc1cc(CNC(=O)c2cccc(Nc3nc4cc(-c5nnn[nH]5)ccc4c4sccc34)c2)no1
9 | > 10 | O=C(O)c1ccc2c(c1)nc(Nc1cc(F)cc(Cl)c1)c1ccsc12
10 | > 10 | N#Cc1cc(F)cc(Nc2nc3cc(C(=O)O)ccc3c3sccc23)c1
11 | > 10 | CC(=O)N1CCN(C(=O)c2cccc(Nc3nc4cc(-c5nnn[nH]5)ccc4c4sccc34)c2)CC1

same assay, conditions: MIA PaCa-2, Table 18

Row | SMILES | IC50 [µM]
12 | C#Cc1cccc(Nc2nc3cc(C(=O)O)ccc3c3cnc(NCC4CCCO4)nc23)c1 (centres unmarked) [drawing 1063] | 0.45
13 | CNc1ncc2c(n1)c(Nc1cccc(Cl)c1)nc1cc(C(=O)O)ccc12 | 1.75
14 | CC1CCCCN1CCCNc1ncc2c(n1)c(Nc1ccc(F)c(Cl)c1)nc1cc(C(=O)O)ccc12 (centres unmarked) [drawing 1087] | 3.16
15 | O=C(O)c1ccc2c(c1)nc(NC1CC1)c1nc(NC3CC3)ncc12 [drawing 1074] | 2.83
16 | C#Cc1cccc(Nc2nc3cc(C(=O)O)ccc3c3cnc(NCC4CC4)nc23)c1 [drawing 1064] | 0.48
17 | O=C(O)c1ccc2c(c1)nc(NCCc1cccc(F)c1)c1ccncc12 [drawing 1022] | > 10
18 | O=C(O)c1ccc2c(c1)nc(NCCCc1ccccc1)c1ccncc12 [drawing 1023] | > 10
19 | O=C(O)c1ccc2c(c1)nc(NC1CC1)c1nc(NCc3ccccc3)ncc12 [drawing 1075] | 14.7

Now from value to compound:

Row | IC50 [µM] | SMILES
20 | > 10 | O=C(O)c1ccc2c(c1)nc(NCCc1cccc(Cl)c1)c1ccncc12 [drawing 1021]
21 | 5.08 | O=C(O)c1ccc2c(c1)nc(NCCc1ccccc1)c1ccncc12 [drawing 1007]
22 | 32.4 | COC(=O)c1ccc2c(c1)nc(NC1CC1)c1nc(SCc3ccccc3Cl)ncc12 [drawing 1069]
23 | > 50 | O=C(O)c1ccc2c(c1)nc(N1CCOCC1)c1nc(NC3CC3)ncc12 [drawing 1085]
24 | 4.65 | CCCNc1ncc2c(n1)c(NC1CC1)nc1cc(C(=O)O)ccc12 [drawing 1103]
25 | > 50 | O=C(O)c1ccc2c(c1)nc(NC1CC1)c1nc(SCc3ccccc3Cl)ncc12 [drawing 1072]
26 | 8.33 | Cc1cccc(Nc2nc3cc(C(=O)O)ccc3c3cncnc23)c1
27 | 2.44 | O=C(O)c1ccc2c(c1)nc(NC1CC1)c1nc(Nc3ccccc3)ncc12 [drawing 1076]

tested on: HCT-116 human colorectal carcinoma cells; experiment: Cell proliferation assay, Alamar Blue, HCT-116; format: cell-based; conditions: HCT-116, Table 16, second HCT-116 column;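 further: cells exposed to compound for about 4 days, then Alamar Blue added and fluorescence read after about 4 h, medium-only wells as control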

Row | SMILES | IC50 [µM]
28 | Fc1cc(Cl)cc(Nc2nc3cc(-c4nnn[nH]4)ccc3c3sccc23)c1 | > 10
29 | O=C(O)c1ccc2c(c1)nc(Nc1cccc(S(=O)(=O)NC3CC3)c1)c1ccsc12 | > 10

Further lines, results first:

Row | IC50 [µM] | SMILES
30 | > 10 | Cc1cc(CNC(=O)c2cccc(Nc3nc4cc(-c5nnn[nH]5)ccc4c4sccc34)c2)no1
31 | > 10 | O=C(O)c1ccc2c(c1)nc(Nc1cc(F)cc(Cl)c1)c1ccsc12
32 | > 10 | N#Cc1cc(F)cc(Nc2nc3cc(C(=O)O)ccc3c3sccc23)c1
33 | > 10 | CC(=O)N1CCN(C(=O)c2cccc(Nc3nc4cc(-c5nnn[nH]5)ccc4c4sccc34)c2)CC1

same assay, conditions: HCT-116, Table 18

Row | SMILES | IC50 [µM]
34 | C#Cc1cccc(Nc2nc3cc(C(=O)O)ccc3c3cnc(NCC4CCCO4)nc23)c1 (centres unmarked) [drawing 1063] | > 10
35 | CNc1ncc2c(n1)c(Nc1cccc(Cl)c1)nc1cc(C(=O)O)ccc12 | > 10
36 | O=C(O)c1ccc2c(c1)nc(Nc1cncc(C3CC3)c1)c1ncncc12 | > 10
37 | O=C(O)c1ccc2c(c1)nc(NC1CC1)c1nc(NC3CC3)ncc12 [drawing 1074] | > 10
38 | C#Cc1cccc(Nc2nc3cc(C(=O)O)ccc3c3cnc(NCC4CC4)nc23)c1 [drawing 1064] | > 10
39 | O=C(O)c1ccc2c(c1)nc(NCCc1cccc(F)c1)c1ccncc12 [drawing 1022] | > 10
40 | O=C(O)c1ccc2c(c1)nc(NCCCc1ccccc1)c1ccncc12 [drawing 1023] | > 10
41 | O=C(O)c1ccc2c(c1)nc(NC1CC1)c1nc(NCc3ccccc3)ncc12 [drawing 1075] | > 10

More lines, now with the values ahead:

Row | IC50 [µM] | SMILES
42 | > 10 | O=C(O)c1ccc2c(c1)nc(NCCc1cccc(Cl)c1)c1ccncc12 [drawing 1021]
43 | > 10 | O=C(O)c1ccc2c(c1)nc(NCCc1ccccc1)c1ccncc12 [drawing 1007]
44 | > 10 | CCCNc1ncc2c(n1)c(NC1CC1)nc1cc(C(=O)O)ccc12 [drawing 1103]
45 | > 10 | Cc1cccc(Nc2nc3cc(C(=O)O)ccc3c3cncnc23)c1
46 | > 10 | O=C(O)c1ccc2c(c1)nc(NC1CC1)c1nc(Nc3ccccc3)ncc12 [drawing 1076]

tested on: Jurkat; experiment: Cell proliferation assay, Alamar Blue, Jurkat; format: cell-based; conditions: Homo sapiens, Table 18;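 further: cells exposed to compound for about 4 days at 37 °C, then Alamar Blue added and fluorescence read after about 4 h, controls given medium without drug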

Row | SMILES | IC50 [µM]
47 | C#Cc1cccc(Nc2nc3cc(C(=O)O)ccc3c3cnc(NCC4CCCO4)nc23)c1 (centres unmarked) [drawing 1063] | 2.04
48 | CNc1ncc2c(n1)c(Nc1cccc(Cl)c1)nc1cc(C(=O)O)ccc12 | 1.09
49 | O=C(O)c1ccc2c(c1)nc(Nc1cncc(C3CC3)c1)c1ncncc12 | > 50
50 | CC1CCCCN1CCCNc1ncc2c(n1)c(Nc1ccc(F)c(Cl)c1)nc1cc(C(=O)O)ccc12 (centres unmarked) [drawing 1087] | 2.86
51 | O=C(O)c1ccc2c(c1)nc(NC1CC1)c1nc(NC3CC3)ncc12 [drawing 1074] | 3.45
52 | C#Cc1cccc(Nc2nc3cc(C(=O)O)ccc3c3cnc(NCC4CC4)nc23)c1 [drawing 1064] | 0.42
53 | O=C(O)c1ccc2c(c1)nc(NC1CC1)c1nc(NCc3ccccc3)ncc12 [drawing 1075] | 8.82

More lines, now with the values ahead:

Row | IC50 [µM] | SMILES
54 | 4.67 | COC(=O)c1ccc2c(c1)nc(NC1CC1)c1nc(SCc3ccccc3Cl)ncc12 [drawing 1069]
55 | 3.67 | O=C(O)c1ccc2c(c1)nc(N1CCOCC1)c1nc(NC3CC3)ncc12 [drawing 1085]
56 | 7.49 | CCCNc1ncc2c(n1)c(NC1CC1)nc1cc(C(=O)O)ccc12 [drawing 1103]
57 | 29.3 | O=C(O)c1ccc2c(c1)nc(NC1CC1)c1nc(SCc3ccccc3Cl)ncc12 [drawing 1072]
58 | 3.45 | Cc1cccc(Nc2nc3cc(C(=O)O)ccc3c3cncnc23)c1
59 | 4.6 | O=C(O)c1ccc2c(c1)nc(NC1CC1)c1nc(Nc3ccccc3)ncc12 [drawing 1076]

tested on: PC-3 human prostatic cancer cells; experiment: Cell proliferation assay, Alamar Blue, PC-3; format: cell-based; conditions: Table 18, read-out: IC50 PC3
Method: as §8, §1, §2, §3, §4, §5, §6, §7

Row | SMILES | IC50 [µM]
60 | Fc1cc(Nc2nc3cc(-c4nnn[nH]4)ccc3c3cnccc23)ccc1Cl | > 50
61 | O=C(O)c1ccc2c(c1)nc(NCCc1cccc(F)c1)c1ccncc12 [drawing 1022] | 27
62 | O=C(O)c1ccc2c(c1)nc(NCCCc1ccccc1)c1ccncc12 [drawing 1023] | 5.25

Now from value to compound:

Row | IC50 [µM] | SMILES
63 | 46.6 | O=C(O)c1ccc2c(c1)nc(NCCc1cccc(Cl)c1)c1ccncc12 [drawing 1021]
64 | 23.6 | O=C(O)c1ccc2c(c1)nc(NCCc1ccccc1)c1ccncc12 [drawing 1007]
65 | > 50 | Fc1cccc(Nc2nc3cc(-c4nnn[nH]4)ccc3c3cnccc23)c1
